From US10870639B2, “Pyrimidine compounds and pharmaceutical compositions for preventing or treating cancers including the same” (HANMI PHARM. CO., LTD., priority 2018, dated 2020)

Assays:
[1] = Pharmacokinetic profile in mice (p.o. and i.v.); format: in vivo; design: AUC: concentration or dose not given beside the values; settings: mouse, plasma; for AUC: LC-MS/MS, non-compartment analysis, read-out: Area under the curve (AUC) of mice; for bioavailability: po, BA=(AUC p.o./AUC i.v.)×(Dose i.v./Dose p.o.)×100
Method: After test substances were formulated by using the selected solvents, they were administered orally (p.o.) and intravenously (iv) once for each and a certain amount of blood was taken at a predetermined time, and plasma was isolated from the blood and a concentration analysis was performed thereon by LC-MS/MS. The AUC (drug concentration and an area under the curve) was calculated according to the linear-log trapezoidal summation formula by using the non-compartment analysis of the WinNonlin program through the plasma concentration curves over time. The bioavailability (BA) was calculated by applying the calculated AUC value to the following formula. BA (%)=(AUC p.o./AUC i.v.)×(Dose i.v./Dose p.o.)×100

MOLM-13 = test: Cell growth inhibition (MTS), MOLM-13; format: cell-based; settings: Homo sapiens, MOLM-13, 72 h, incubation three days
Method: (§1) The human acute myelogenous leukemia […] cell line MOLM-13 (DSMZ no. ACC 554) was incubated in RPM11640 medium supplemented with 20% heat-inactivated FBS at a temperature of 37° C. The incubated cell line was prepared in an amount of 2.0×10^4 cells/100 μL, and then plated on a 96-well plate. The RPMI1640 medium was serially diluted with the test compounds at a concentration in a range of 1 μM to 0.01 nM at a ratio of 1:10. Subsequently, incubation was performed thereon for three days. For the human acute myelogenous leukemia cell line MV-4-11 cell line (ATCC® CRL-9591™), the cells were incubated at a temperature of 37° C. in IMDM medium supplemented with 10% FBS. The incubated cell line was prepared in an amount of 2×10^4 cells/100 μL, and then plated on a 96-well plate. The IMDM medium was treated with cascade dilution of three test compounds at a concentration in a range of 1 μM to 0.01 nM at a rate of 1/10. Subsequently, incubation was performed thereon for three days. MTS test was performed to measure cell viability, and the growth inhibition (GI50) value of the cell line was calculated using GraphPad Prism software.

MV-4-11 = test: Cell growth inhibition (MTS), MV-4-11; format: cell-based; settings: Homo sapiens, MV4-11, 72 h, incubation three days
Method: as §1

FLT3 WT = FLT3 WT (Homo sapiens (Human), UniProt P36888); test: LanthaScreen kinase binding assay, FLT3 WT; settings: kinase tracer-236, 50 nM to 0.05 nM
Sequence of FLT3 WT (P36888 27-993): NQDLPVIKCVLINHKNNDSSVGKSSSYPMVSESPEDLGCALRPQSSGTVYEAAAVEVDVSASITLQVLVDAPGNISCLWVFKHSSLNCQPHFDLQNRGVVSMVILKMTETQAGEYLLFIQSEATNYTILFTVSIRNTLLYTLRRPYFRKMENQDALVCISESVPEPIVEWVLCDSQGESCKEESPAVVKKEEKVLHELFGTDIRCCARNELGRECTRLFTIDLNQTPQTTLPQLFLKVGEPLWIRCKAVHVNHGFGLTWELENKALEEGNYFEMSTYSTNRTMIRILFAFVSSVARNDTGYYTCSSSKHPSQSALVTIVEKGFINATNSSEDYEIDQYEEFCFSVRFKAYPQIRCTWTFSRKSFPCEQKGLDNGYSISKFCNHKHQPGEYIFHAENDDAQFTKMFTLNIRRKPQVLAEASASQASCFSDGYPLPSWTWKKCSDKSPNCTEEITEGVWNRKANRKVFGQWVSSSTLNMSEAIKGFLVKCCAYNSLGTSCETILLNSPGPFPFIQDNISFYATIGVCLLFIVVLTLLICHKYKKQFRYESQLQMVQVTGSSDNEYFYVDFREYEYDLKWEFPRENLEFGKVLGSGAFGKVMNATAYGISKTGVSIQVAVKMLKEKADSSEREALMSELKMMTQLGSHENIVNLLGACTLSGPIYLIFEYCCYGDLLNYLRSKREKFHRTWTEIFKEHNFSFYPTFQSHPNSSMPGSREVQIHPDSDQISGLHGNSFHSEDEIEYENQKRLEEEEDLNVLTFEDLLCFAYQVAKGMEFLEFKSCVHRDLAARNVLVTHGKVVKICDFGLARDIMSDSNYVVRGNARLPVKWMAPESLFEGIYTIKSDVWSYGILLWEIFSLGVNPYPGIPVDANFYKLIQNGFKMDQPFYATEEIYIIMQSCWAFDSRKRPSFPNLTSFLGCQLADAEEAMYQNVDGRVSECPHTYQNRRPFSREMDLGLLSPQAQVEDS
Method: (§2) The inhibitory activity of some of the compounds described above against FLT3-ITD, FLT3 wild type (WT), VEGFR2 (KDR), and SYK kinase was measured.
(§3) This experiment was carried out on a 384-well plate in conditions including 50 mM HEPES pH 7.5, 0.01% BRIJ-35, 10 mM MgCl2, 1 mM EGTA, and 1% DMSO.

FLT3 ITD = FLT3 ITD (Homo sapiens, UniProt P36888, ITD); test: LanthaScreen kinase binding assay, FLT3 ITD
Sequence of FLT3 ITD (P36888 whole entry, looked up, change not shown): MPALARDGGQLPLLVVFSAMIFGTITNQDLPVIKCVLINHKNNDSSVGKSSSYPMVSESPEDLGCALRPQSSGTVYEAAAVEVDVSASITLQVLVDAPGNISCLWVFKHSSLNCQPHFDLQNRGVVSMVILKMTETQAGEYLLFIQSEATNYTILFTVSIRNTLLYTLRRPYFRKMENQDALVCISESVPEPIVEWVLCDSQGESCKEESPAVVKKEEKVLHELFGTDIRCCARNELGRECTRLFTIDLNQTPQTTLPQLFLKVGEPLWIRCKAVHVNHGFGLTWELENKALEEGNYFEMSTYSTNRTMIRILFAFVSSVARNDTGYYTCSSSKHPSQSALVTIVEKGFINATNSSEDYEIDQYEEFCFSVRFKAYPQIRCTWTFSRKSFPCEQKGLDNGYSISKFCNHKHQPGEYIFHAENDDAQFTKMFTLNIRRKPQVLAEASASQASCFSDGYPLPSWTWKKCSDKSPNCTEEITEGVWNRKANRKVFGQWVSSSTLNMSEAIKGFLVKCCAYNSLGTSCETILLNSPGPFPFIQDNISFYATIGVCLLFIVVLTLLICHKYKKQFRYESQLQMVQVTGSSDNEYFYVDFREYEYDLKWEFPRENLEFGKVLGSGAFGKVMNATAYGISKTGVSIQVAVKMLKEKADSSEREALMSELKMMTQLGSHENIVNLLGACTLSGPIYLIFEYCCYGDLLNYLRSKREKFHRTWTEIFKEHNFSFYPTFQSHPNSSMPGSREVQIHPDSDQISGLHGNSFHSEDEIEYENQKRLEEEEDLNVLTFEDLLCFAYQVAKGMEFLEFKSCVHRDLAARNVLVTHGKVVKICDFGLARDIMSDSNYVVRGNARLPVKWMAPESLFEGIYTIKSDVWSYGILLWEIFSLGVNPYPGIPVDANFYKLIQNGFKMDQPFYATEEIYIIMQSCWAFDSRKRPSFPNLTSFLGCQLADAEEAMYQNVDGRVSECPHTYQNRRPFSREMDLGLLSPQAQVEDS
Method: as §2, §3

Row | Compound | AUC [1] | bioavailability [1] | GI50 (MOLM-13) | GI50 (MV-4-11) | IC50 (FLT3 WT) | IC50 (FLT3 ITD)
1 | COc1cc(CN2CCN(CCO)CC2)cc(Nc2ncc(Cl)c(-c3c[nH]c4ccccc34)n2)c1 [Control Compound 1] | 95.5 ng·h/mL | 6.6% | – | – | – | –
2 | OCCN1CCN(Cc2cccc(Nc3ncc(Cl)c(-c4c[nH]c5ccccc45)n3)c2)CC1 [Control Compound 2] | 110 ng·h/mL | 6.7% | – | – | – | –
3 | Cc1ccc2c(-c3nc(Nc4cc(C5CC5)cc(N5CCC(N(C)C)CC5)c4)ncc3Cl)c[nH]c2c1 [Control Compound 3] | 2270 ng·h/mL | 27.3% | – | – | – | –
4 | CN(C)C1CCN(c2cc(Nc3ncc(Cl)c(-c4c[nH]c5ccccc45)n3)cc(C3CC3)c2)CC1 [Control Compound 4] | 518 ng·h/mL | 27% | – | – | – | –
5 | Cc1ccc2c(-c3nc(Nc4cc(CN5CCN(C(C)(C)CO)CC5)cc(C5CC5)c4)ncc3Cl)c[nH]c2c1 [Control Compound 5] | 1220 ng·h/mL | 25.6% | – | – | – | –
6 | C[C@@H]1CN(Cc2cc(Nc3ncc(Cl)c(-c4c[nH]c5cc(Cl)ccc45)n3)cc(C3CC3)c2)C[C@H](C)N1 [Example 2, 5-chloro-4-(6-chloro-1H-indole-3-yl)-N-(3-cyclopropyl-5-(((3R,5S)-3,5-dimethylpiperazine-1-yl)methyl)phenyl)pyrimidine-2-amine] | – | – | 6.2 nM | 3.5 nM | 1.9 nM | 1.5 nM
7 | C[C@@H]1CN(Cc2cc(Nc3ncc(Cl)c(-c4c[nH]c5ccccc45)n3)cc(C3CC3)c2)CCN1 [Example 6, (R)-5-chloro-N-(3-cyclopropyl-5-((3-methylpiperazine-1-yl)methyl)phenyl)-4-(1H-indole-3-yl)pyrimidine-2-amine] | – | – | – | – | – | 1.8 nM
8 | Cc1ccc2c(-c3nc(Nc4cc(CN5C[C@@H](C)N[C@@H](C)C5)cc(C5CC5)c4)ncc3F)c[nH]c2c1 [Example 12, N-(3-cyclopropyl-5-(((3R,5S)-3,5-dimethylpiperazine-1-yl)methyl)phenyl)-5-fluoro-4-(6-methyl-1H-indole-3-yl)pyrimidine-2-amine] | – | – | 21 nM | 11 nM | 1.2 nM | 2.5 nM
9 | C[C@@H]1CN(Cc2cc(Nc3ncc(Cl)c(-c4c[nH]c5cc(CO)ccc45)n3)cc(C3CC3)c2)C[C@H](C)N1 [Example 16, (3-(5-chloro-2-((3-cyclopropyl-5-(((3R,5S)-3,5-dimethylpiperazine-1-yl)methyl)phenyl)amino)pyrimidine-4-yl)-1H-indole-6-yl)methanol] | – | – | – | – | 0.4 nM | 0.5 nM
10 | COc1cc2c(-c3nc(Nc4cc(CN5C[C@@H](C)N[C@@H](C)C5)cc(C5CC5)c4)ncc3Cl)c[nH]c2cc1C [Example 17, 5-chloro-N-(3-cyclopropyl-5-(((3R,5S)-3,5-dimethylpiperazine-1-yl)methyl)phenyl)-4-(5-methoxy-6-methyl-1H-indole-3-yl)pyrimidine-2-amine] | – | – | – | – | 9.5 nM | > 50 nM
11 | Cc1cc2[nH]cc(-c3nc(Nc4cc(CN5C[C@@H](C)N[C@@H](C)C5)cc(C5CC5)c4)ncc3Cl)c2cc1O [Example 18, 3-(5-chloro-2-((3-cyclopropyl-5-(((3R,5S)-3,5-dimethylpiperazine-1-yl)methyl)phenyl)amino)pyrimidine-4-yl)-6-methyl-1H-indole-5-ol] | – | – | – | – | 3.7 nM | 13 nM
12 | Cc1ccc2c(c1)NC(=O)C2c1nc(Nc2cc(CN3C[C@@H](C)N[C@@H](C)C3)cc(C3CC3)c2)ncc1Cl (stereo partly drawn) [Example 19, 3-(5-chloro-2-((3-cyclopropyl-5-(((3R,5S)-3,5-dimethylpiperazine-1-yl)methyl)phenyl)amino)pyrimidine-4-yl)-6-methylindoline-2-one] | – | – | – | – | – | > 50 nM
13 | Cc1ccc2c(-c3nc(Nc4cc(CN5C[C@@H](C)N[C@@H](C)C5)cc(C5CC5)c4)ncc3Cl)c[nH]c2c1O [Example 22, 3-(5-chloro-2-((3-cyclopropyl-5-(((3R,5S)-3,5-dimethylpiperazine-1-yl)methyl)phenyl)amino)pyrimidine-4-yl)-6-methyl-1H-indole-7-ol] | – | – | – | – | – | 2.4 nM
14 | Cc1ccc2c(-c3nc(Nc4cc(C5CC5)cc(CN5C[C@@H](C)N[C@@H](C)C5)c4O)ncc3Cl)c[nH]c2c1 [Example 23, 2-((5-chloro-4-(6-methyl-1H-indole-3-yl)pyrimidine-2-yl)amino)-4-cyclopropyl-6-(((3R,5S)-3,5-dimethylpiperazine-1-yl)methyl)phenol] | – | – | – | – | 0.4 nM | > 50 nM
15 | Cc1ccc2c(-c3nc(Nc4cc(CN5C[C@H](CO)N[C@H](C)C5)cc(C5CC5)c4)ncc3Cl)c[nH]c2c1 [Example 26, ((2R,6R)-4-(3-((5-chloro-4-(6-methyl-1H-indole-3-yl)pyrimidine-2-yl)amino)-5-cyclopropylbenzyl)-6-methylpiperazine-2-yl)methanol] | – | – | 6.1 nM | 22 nM | 1.5 nM | 2.3 nM
16 | Cc1ccc2c(-c3nc(Nc4cc(CN5C[C@@H](C)N(O)[C@@H](C)C5)cc(C5CC5)c4)ncc3Cl)c[nH]c2c1 [Example 31, (2R,6S)-4-(3-((5-chloro-4-(6-methyl-1H-indole-3-yl)pyrimidine-2-yl)amino)-5-cyclopropylbenzyl)-2,6-dimethylpiperazine-1-ol] | – | – | – | – | – | 6.9 nM

More lines, main results first:

Row | AUC [1] | bioavailability [1] | GI50 (MOLM-13) | GI50 (MV-4-11) | Compound | IC50 (FLT3 WT) | IC50 (FLT3 ITD)
17 | – | – | 0.4 nM | 0.3 nM | C[C@@H]1CN(Cc2cc(Nc3ncc(Cl)c(-c4c[nH]c5cc(F)ccc45)n3)cc(C3CC3)c2)C[C@H](C)N1CCO [Example 3, 2-((2R,6S)-4-(3-((5-chloro-4-(6-fluoro-1H-indole-3-yl)pyrimidine-2-yl)amino)-5-cyclopropylbenzyl)-2,6-dimethylpiperazine-1-yl)ethane-1-ol] | – | 8.1 nM
18 | 184 ng·h/mL | 7.4% | 0.7 nM | 1.7 nM | C[C@@H]1CN(Cc2cc(Nc3ncc(Cl)c(-c4c[nH]c5ccccc45)n3)cc(C3CC3)c2)C[C@H](C)N1CCO [Example 4, 2-((2R,6S)-4-(3-((5-chloro-4-(1H-indole-3-yl)pyrimidine-2-yl)amino)-5-cyclopropylbenzyl)-2,6-dimethylpiperazine-1-yl)ethane-1-ol] | – | 3.6 nM
19 | – | – | 5 nM | 2.8 nM | Cc1ccc2c(-c3nc(Nc4cc(CN5CC(C)NC(C)C5)cc(C5CC5)c4)ncc3Cl)c[nH]c2c1 (stereo not shown) [Example 10, 5-chloro-N-(3-cyclopropyl-5-((3,5-dimethylpiperazine-1-yl)methyl)phenyl)-4-(6-methyl-1H-indole-3-yl)pyrimidine-2-amine] | – | –
20 | – | – | 2.6 nM | 2.1 nM | Cc1cnc(Nc2cc(CN3C[C@@H](C)N[C@@H](C)C3)cc(C3CC3)c2)nc1-c1c[nH]c2ccccc12 [Example 13, N-(3-cyclopropyl-5-(((3R,5S)-3,5-dimethylpiperazine-1-yl)methyl)phenyl)-4-(1H-indole-3-yl)-5-methylpyrimidine-2-amine] | – | 8.7 nM
21 | – | – | 0.8 nM | < 0.01 nM | Cc1ccc2c(-c3nc(Nc4cc(CN5C[C@@H](C)N[C@H](C)C5)cc(C5CC5)c4)ncc3Cl)c[nH]c2c1 [Example 28, 5-chloro-N-(3-cyclopropyl-5-(((3R,5R)-3,5-dimethylpiperazine-1-yl)methyl)phenyl)-4-(6-methyl-1H-indole-3-yl)pyrimidine-2-amine] | – | –
